The results in this text go back to patent US9295730B2, “Conjugated molecules comprising a peptide derived from the CD4 receptor coupled to a polyanion for the treatment of AIDS” (Institut Pasteur, priority 2008, dated 2016).

Type in all cases: cell-based
The nature of series [1]: Cytotoxicity, MTT assay on day 7. The note with it: human, uninfected PHA-P-activated PBMC. The method, then:
(§1) In parallel, cytotoxicity of the samples was evaluated in uninfected PHA-P-activated PBMC by a methyltetrazolium salt (MTT) assay on day 7. Experiments were performed in triplicate and 50, 70 and 90% effective doses and cytotoxic doses were calculated using SoftMaxPro software.
In general terms: Tetrazolium assays rely on reduction of a dye to a coloured formazan, in cell work by metabolically active cells.

The test system of series [2] is uninfected PHA-P-activated PBMC. Kind of series: Cytotoxicity, MTT assay on day 7. The method, then:
as §1

A further series has as its system X4-tropic HIV-1-LAI. Briefly: Antiviral assay, PHA-P-activated PBMC infected with HIV-1-LAI, RT activity in supernatants. The note with it: Table 7, VIH-1-LAI; for EC50: read-out: ED50 (the source's name).
The subject of another series is R5-tropic HIV-1/Ba-L. Kind of series: Antiviral assay, PHA-P-activated PBMC infected with HIV-1/Ba-L, RT activity in supernatants. The note with it: Table 7, VIH-1/Ba-L.

Ends that are not written are not given here.

Consider MEDLEETLFEEFENYSYDLDYYSLESC [GPR1], for which, in series [1], the CC50 at 168 h was above 1 µM. Further, in series [2], the “Cytotoxicity CT70” value is on record as above 1000 nM and the “Cytotoxicity CT90” value is given as above 1000 nM. Moreover, in the series on X4-tropic HIV-1-LAI, the ED70 was above 1 µM, the ED90 is above 1 µM and the EC50 is above 1 µM. In the series with R5-tropic HIV-1/Ba-L, this substance registered an ED70 above 1 µM and an ED90 above 1 µM. The EC50 with R5-tropic HIV-1/Ba-L (read-out: ED50 (the source's name)) is above 1 µM.
“5-aminopentyl[(3-O-benzyl-4-O-(4-methoxybenzyl)-2-O-sulfonato-α-L-idopyranosyluronate)-(1→4)-O-(3-O-benzyl-2-deoxy-2-sulfoamino-6-O-sulfonato-α-D-glucopyranoside)-(1→4)-O-(3-O-benzyl-2-O-sulfonato-α-L-idopyranosyluronate)]-(1→4)-O-3-O-benzyl-2-deoxy-2-sulfoamino-6-O-sulfonato-α-D-glucopyranoside heptasodium salt [HS4Bz]”: in series [2], the “Cytotoxicity CT50” value is given as above 1000 nM, the “Cytotoxicity CT70” value is listed as above 1000 nM and the “Cytotoxicity CT90” value is given as above 1000 nM. In the series on X4-tropic HIV-1-LAI, the ED70 is above 1 µM, the ED90 is above 1 µM and the EC50 is above 1 µM.

A word on the CC50: it is the concentration at which the toxic effect on the cells reaches its halfway point. Low readings indicate harm at low concentration, high ones better tolerance by the cells.
